What is called inhibition is the relative decrease from the control value, in per cent. What is called IC50 is the concentration that gives 50% inhibition. For orientation: melting point means the temperature of the solid-liquid transition.

Each structure is given as a SMILES string. ≈ marks a conversion by molar mass, not a printed value.

The test system of data set [1] is Bacillus subtilis (ATCC 6633). The experiment in a line: Microplate Alamar Blue Assay, Bacillus subtilis. As to conditions: ATCC6633, 200 μg/mL, NI = No inhibition, read-out: Percentage (%) Inhibition, Bacillus subtilis. The class given is cell-based. (In general: The colour change of resazurin is a common sign of viable cells or microbes.)
Data set [2] deals with Pseudomonas aeruginosa (POA 286). The experiment in a line: Microplate Alamar Blue Assay, Pseudomonas aeruginosa. As to conditions: Pseudomonas aeruginosa; 200 μg/mL; NI = No inhibition; read-out: Percentage (%) Inhibition, Pseudomonas aerugenosa. The class given is cell-based.
Data set [3] relates to nitric oxide (NO) production from LPS activated J774.2 mouse macrophages. The experiment in a line: Nitric oxide production (Griess), LPS activated macrophages. The class given is cell-based. The settings on record: J774.2 cells, 30 μg/mL LPS, three doses 1, 10, 100 μg/mL, mean ± SD of three, read-out: NO Inhibition (IC50). The method, then: The mouse macrophage cell line J774.2 (European Collection of Cell Cultures, UK) was cultured in 75 cc flasks IWAKI (Asahi Techno Glass, Japan) in DMEM Sigma-Aldrich (Steinheim, Germany) supplemented with 10% fetal bovine serum GIBCO (New York, USA)1% streptomycin/penicillin. Flasks were kept at 37 °C in atmosphere of humidified air containing 5% CO2, cells were seeded in 96-well plate (10^6 cells/mL) and were induced by 30 μg/mL e. coli lipopolysaccharide (LPS) (DIFCO Laboratories michigon, USA). The test compounds were added at concentrations of (1, 10 and 100 μg/mL) and plate was incubated at 37 °C in 5% CO2. Nitrite accumulation in culture supernatant was measured using the Griess reagents as described previously.
(In general: The Griess reaction detects nitrite, a stable product of nitric oxide.)

Data set [4] has as its system zymosan activated whole blood phagocytes. The experiment in a line: Oxidative burst assay (luminol-enhanced chemiluminescence), whole blood. The class given is cell-based. The settings on record: human whole blood, serum opsonized zymosan, three doses 1, 10, 100 μg/mL, mean ± SD of three, NA = Not active, read-out: Oxidative Burst Inhibition (IC50) WB. The method, then:
Luminol-enhanced chemiluminescence assay was performed, as described by Helfandet al., 1982 [17], with some modifications. Briefly 25 μL of diluted whole blood in HBSS^++ (Hanks Balanced Salt Solution, containing calcium chloride and magnesium chloride) [Sigma, St. Louis, USA] was incubated with 25 μL of three different concentrations of compounds (1, 10, and 100 μg/mL), each in triplicate. Control wells received HBSS^++ and cells, but no compounds. Test was performed in white half area 96-well plates [Costar, NY, USA], which was incubated at 37 °C for 15 minutes in the thermostat chamber of luminometer [Labsystems, Helsinki, Finland]. After incubation, 25 μL of serum opsonized zymosan (SOZ) [Fluka, Buchs, Switzerland] and 25 μL of intracellular reactive oxygen species detecting probe, luminol [Research Organics, Cleveland, OH, USA] were added into each well, except blank wells (containing only HBSS^++). The level of the ROS was recorded in luminometer in term of relative light units (RLU).

Data set [5] has as its system Staphylococcus aureus (ATCC 25923). The experiment in a line: Microplate Alamar Blue Assay, Staphylococcus aureus. The class given is cell-based. The settings on record: Staphylococcus aureus, ATCC25923; 200 μg/mL; NI = No inhibition; read-out: Percentage (%) Inhibition, Staphylococcus aureus.
The subject of data set [6] is Salmonella typhi (ATCC 14028). The data set can be described thus: Microplate Alamar Blue Assay, Salmonella typhi. The class given is cell-based. As to conditions: Salmonella enterica; 200 μg/mL; NI = No inhibition; read-out: Percentage (%) Inhibition, Slamonella typhi.

As to `Cc1cc(C)nc(NS(=O)(=O)c2ccc(NC(=O)C(Br)CBr)cc2)n1` (stereo not drawn) [Compound 3, 2,3-Dibromo-N-(4-(N-(4,6-dimethylpyrimidin-2-yl)sulfamoyl)phenyl)propanamide], the inhibition at 200 µg/mL in data set [1] is less than 0%; in data set [2], 5.93%; in data set [5] it was 60%; in data set [6] it was less than 0%. Moreover, the IC50 in data set [3] is less than 1 mg/L; in data set [4], 6.5 ± 1.3 mg/L.

As for `Cc1cc(C)nc(NS(=O)(=O)c2ccc(NC(=O)c3cccc(CCl)c3)cc2)n1` [Compound 4, 3-(Chloromethyl)-N-(4-(N-(4,6-dimethylpyrimidin-2-yl)sulfamoyl)phenyl)benzamide], the inhibition at 200 µg/mL in data set [1] was less than 0%; in data set [2], less than 0%; in data set [5] it was 3.21%; in data set [6], less than 0%. The IC50 in data set [3] was less than 1 mg/L; in data set [4], 7.3 ± 0.4 mg/L.

`Cc1cc(C)nc(NS(=O)(=O)c2ccc(NC(=O)c3ccc(CCl)cc3)cc2)n1` [Compound 5, 4-(Chloromethyl)-N-(4-(N-(4,6-dimethylpyrimidin-2-yl)sulfamoyl)phenyl)benzamide]: the inhibition at 200 µg/mL was less than 0% in data set [1], less than 0% in data set [2], 35% in data set [5] and less than 0% in data set [6]. In addition, the values for the half-inhibitory concentration (IC50) in data set [3] and in data set [4] were 6.9 ± 1.9 mg/L (≈ 16 µM) and 20.5 ± 2.2 mg/L, respectively.

As to `Cc1cc(C)nc(NS(=O)(=O)c2ccc(NC(=O)c3cc(C(F)(F)F)cc(C(F)(F)F)c3)cc2)n1` [Compound 6, N-(4-(N-(4,6-dimethylpyrimidin-2-yl)sulfamoyl)phenyl)-3,5-bis(trifluoromethyl)benzamide], the inhibition at 200 µg/mL in data set [1] was less than 0%; in data set [2] it was less than 0%; in data set [5], 32.7%; in data set [6] it was less than 0%. Besides, the figures for the IC50 in data set [3] and in data set [4] were 7.8 ± 0.3 mg/L (≈ 15 µM) and 5.7 ± 0.8 mg/L, respectively.

As for `Cc1cc(C)nc(NS(=O)(=O)c2ccc(NC(=O)c3cc(F)cc(F)c3)cc2)n1` [Compound 7, N-(4-(N-(4,6-dimethylpyrimidin-2-yl)sulfamoyl)phenyl)-3,5-difluorobenzamide], the melting point was in the range of 237 to 240 °C. Also, in data set [1], the inhibition at 200 µg/mL was less than 0%. Besides, the inhibition at 200 µg/mL in data set [2] was less than 0%. Also, the IC50 in data set [3] was determined as 8 ± 0.3 mg/L (≈ 19.1 µM). Further, the IC50 in data set [4] came to 5.8 ± 0.6 mg/L. Further, the inhibition at 200 µg/mL in data set [5] worked out at 54.3%. The inhibition at 200 µg/mL in data set [6] was determined as 13.1%.

`Cc1cc(C)nc(NS(=O)(=O)c2ccc(NC(=O)c3cc(F)cc(C(F)(F)F)c3)cc2)n1` [Compound 8, N-(4-(N-(4,6-dimethylpyrimidin-2-yl)sulfamoyl)phenyl)-3-fluoro-5-(trifluoromethyl)benzamide]: the inhibition at 200 µg/mL in data set [1] was less than 0%; in data set [2] it was 4.31%; in data set [5], 47.3%; in data set [6], 29.4%. The IC50 was 7.3 ± 0.3 mg/L (≈ 15.6 µM) in data set [3] and 4.2 ± 0.2 mg/L in data set [4].

`Cc1cc(C)nc(NS(=O)(=O)c2ccc(NC(=O)c3ccc(C(F)(F)F)c(F)c3)cc2)n1` [Compound 9, N-(4-(N-(4,6-dimethylpyrimidin-2-yl)sulfamoyl)phenyl)-3-fluoro-4-(trifluoromethyl)benzamide]: the inhibition at 200 µg/mL in data set [1] was less than 0%; in data set [2], less than 0%; in data set [5], 27.9%; in data set [6], 0.94%. In addition, the IC50 in data set [3] amounted to 7.3 ± 0.4 mg/L (≈ 15.6 µM); in data set [4], 5.7 ± 0.2 mg/L.

`Cc1cc(C)nc(NS(=O)(=O)c2ccc(NC(=O)c3ccc(F)c(C(F)(F)F)c3)cc2)n1` [Compound 10, N-(4-(N-(4,6-dimethylpyrimidin-2-yl)sulfamoyl)phenyl)-4-fluoro-3-(trifluoromethyl)benzamide]: the inhibition at 200 µg/mL in data set [1] was less than 0%; in data set [2], less than 0%; in data set [5], 1.09%; in data set [6], less than 0%. Besides, the IC50 was found to be 7.3 ± 0.2 mg/L (≈ 15.6 µM) in data set [3] and 10.6 ± 0.5 mg/L in data set [4].

Compound `Cc1cc(C)nc(NS(=O)(=O)c2ccc(NC(=O)C(C)Cl)cc2)n1` (stereo not drawn) [Compound 11, 2-Chloro-N-(4-(N-(4,6-dimethylpyrimidin-2-yl)sulfamoyl)phenyl)propanamide] displayed a melting point of 256 to 258 °C. Further, the inhibition at 200 µg/mL in data set [1] worked out at 35.1%. For the same compound, in data set [2], the inhibition at 200 µg/mL turned out to be 26.5%. Moreover, the IC50 in data set [3] worked out at 26.3 ± 1.8 mg/L (≈ 71.3 µM). The IC50 in data set [4] came out at 34.6 ± 1.2 mg/L. For the same compound, the inhibition at 200 µg/mL in data set [5] is less than 0%. In addition, the inhibition at 200 µg/mL in data set [6] is 29.6%.

As for `Cc1cc(C)nc(NS(=O)(=O)c2ccc(NC(=O)c3ccc(F)cc3)cc2)n1` [Compound 12, N-(4-(N-(4,6-dimethylpyrimidin-2-yl)sulfamoyl)phenyl)-4-fluorobenzamide], the inhibition at 200 µg/mL in data set [1] is less than 0%; in data set [2] it was less than 0%; in data set [5], 49.7%; in data set [6] it was 19%. The IC50 in data set [3] came out at 10.8 ± 2.1 mg/L (≈ 27 µM); in data set [4] it was 10.6 ± 0.5 mg/L.

`Cc1cc(C)nc(NS(=O)(=O)c2ccc(NC(=O)c3cccc([N+](=O)[O-])c3)cc2)n1` [Compound 13, N-(4-(N-(4,6-dimethylpyrimidin-2-yl)sulfamoyl)phenyl)-3-nitrobenzamide] came in with a melting point of 251 to 253 °C. In addition, the inhibition at 200 µg/mL in data set [1] is less than 0%. Besides, in data set [2], the inhibition at 200 µg/mL was found to be 6.58%. Moreover, in data set [3], the IC50 was 10.9 ± 0.5 mg/L (≈ 25.5 µM). In addition, the IC50 in data set [4] is 9.2 ± 0.6 mg/L. In addition, the inhibition at 200 µg/mL in data set [5] worked out at 34.3%. The inhibition at 200 µg/mL in data set [6] is less than 0%.

With `Cc1cc(C)nc(NS(=O)(=O)c2ccc(N)cc2)n1` [compound 1, Sulfamethazine, reference compound], the inhibition at 200 µg/mL in data set [1] was less than 0%; in data set [2] it was 8.92%; in data set [5], 42.2%; in data set [6], less than 0%. For the same compound, the IC50 stood at 18.9 ± 1.7 mg/L (≈ 67.9 µM) in data set [3] and 8.9 ± 1.3 mg/L in data set [4].
